The record followed here is ChEMBL document CHEMBL1909046, “DrugMatrix in vitro pharmacology data”.

Data set [1] in a line: DRUGMATRIX: Imidazoline I2, Central radioligand binding (ligand: [3H] Idazoxan). The format is cell membranes, Rattus norvegicus, Wistar, Cerebral cortex, Membrane. Conditions: Not Active = under 50% inhibition at 10 µM.
Another data set has as its target Cytochrome P450 2D6 (Homo sapiens, UniProt P10635). The conditions noted are these: bti-tn-5b1-4. Note: in other assays of this panel Not Active means under 50% inhibition at 10 µM.
A further data set has as its target T1, Interstitial collagenase (Homo sapiens, UniProt P03956).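 Note: MMP-1 enzyme inhibition assay using a peptide substrate; in other assays of this panel Not Active means under 50% inhibition at 10 µM.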
T1 sequence (P03956 whole entry): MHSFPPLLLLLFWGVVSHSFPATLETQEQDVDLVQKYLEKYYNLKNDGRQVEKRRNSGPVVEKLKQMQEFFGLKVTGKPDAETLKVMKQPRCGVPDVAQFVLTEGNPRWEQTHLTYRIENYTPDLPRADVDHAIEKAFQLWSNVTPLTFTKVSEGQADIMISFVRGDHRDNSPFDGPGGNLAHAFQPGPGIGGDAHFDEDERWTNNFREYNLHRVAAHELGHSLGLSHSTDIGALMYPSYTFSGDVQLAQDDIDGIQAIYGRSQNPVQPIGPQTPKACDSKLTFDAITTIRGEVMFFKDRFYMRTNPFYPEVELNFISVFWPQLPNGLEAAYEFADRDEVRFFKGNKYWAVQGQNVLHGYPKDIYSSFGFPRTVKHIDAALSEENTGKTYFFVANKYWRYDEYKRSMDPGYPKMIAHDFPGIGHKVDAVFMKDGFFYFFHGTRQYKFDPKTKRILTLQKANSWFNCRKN
The data set is described as follows: biochemical. The data set is classed as tissue-based, Rheumatoid synovial fibroblasts.

The nature of data set [2]: DRUGMATRIX: Phosphodiesterase PDE3 enzyme inhibition (substrate: [3H]cAMP + cAMP). The data set is classed as tissue-based, Homo sapiens. Conditions: platelet; Not Active = under 50% inhibition at 10 µM.
The nature of data set [3]: DRUGMATRIX: Sigma2 radioligand binding (ligand: [3H] Ifenprodil). The conditions noted are these: Not Active = under 50% inhibition at 10 µM. The data set is classed as cell membranes, Rattus norvegicus, Wistar, Brain, Membrane.
Data set [4] deals with Epidermal growth factor receptor (Homo sapiens, UniProt P00533). Description: DRUGMATRIX: Protein Tyrosine Kinase, EGF Receptor enzyme inhibition (substrate: Poly(Glu:Tyr)). Conditions: Not Active = under 50% inhibition at 10 µM. The data set is classed as cell-based, Insect cells.

Sequence of Cytochrome P450 2D6 (P10635 whole entry): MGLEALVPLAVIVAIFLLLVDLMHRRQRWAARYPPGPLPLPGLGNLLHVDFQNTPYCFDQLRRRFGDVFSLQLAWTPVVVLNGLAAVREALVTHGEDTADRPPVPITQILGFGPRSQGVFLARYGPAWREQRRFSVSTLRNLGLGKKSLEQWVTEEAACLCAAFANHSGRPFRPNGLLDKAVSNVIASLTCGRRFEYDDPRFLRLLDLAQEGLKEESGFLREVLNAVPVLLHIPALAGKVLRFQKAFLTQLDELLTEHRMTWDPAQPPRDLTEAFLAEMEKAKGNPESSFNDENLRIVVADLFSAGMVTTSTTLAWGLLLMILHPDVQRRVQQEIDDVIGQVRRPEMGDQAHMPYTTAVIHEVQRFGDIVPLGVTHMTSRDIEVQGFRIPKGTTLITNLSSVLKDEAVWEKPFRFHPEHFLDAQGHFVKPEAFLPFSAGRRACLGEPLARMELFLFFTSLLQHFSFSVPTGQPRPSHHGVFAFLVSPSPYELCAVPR

The term IC50 denotes the concentration needed to halve the response being measured. Broadly, the Ki is a dissociation constant, usually derived from enzyme kinetics or from competition with a known ligand. On to `O=C(O)CO` [GLYCOLIC ACID], for which the IC50 entry (in data set [1]; against Cytochrome P450 2D6; against Interstitial collagenase; in data set [2]; in data set [3]; in data set [4] (insect cells)) was “Not Active” throughout. Also, the Ki result (in data set [1]; on Cytochrome P450 2D6; in data set [2]; in data set [3]) was “Not Active” each time.

As for `COc1ccccc1OCCNCC(O)COc1cccc2[nH]c3ccccc3c12` (configuration not stated) [CARVEDILOL], the concentration for half-maximal inhibition (IC50) in data set [1] (read-out: IC50) is 1920 nM; against Cytochrome P450 2D6 it was “Not Active”; on Interstitial collagenase, “Not Active”; in data set [2], “Not Active”; in data set [3], “Not Active”; in data set [4] (insect cells) it was “Not Active”. Besides, the Ki in data set [1] (read-out: Ki) was 1280 nM; at Cytochrome P450 2D6 it was “Not Active”; in data set [2], “Not Active”; in data set [3], “Not Active”.

Consider `O=C(NCCN1CCOCC1)c1ccc(Cl)cc1` [MOCLOBEMIDE], for which the IC50 result (in data set [1]; against Cytochrome P450 2D6; at Interstitial collagenase; in data set [2]; in data set [3]; in data set [4] (insect cells)) was “Not Active” each time. The inhibition constant Ki result (in data set [1]; on Cytochrome P450 2D6; in data set [2]; in data set [3]) was “Not Active” throughout.

Consider `C=CCO` [ALLYL ALCOHOL], for which the concentration for half-maximal inhibition (IC50) entry (in data set [1]; against Cytochrome P450 2D6; against Interstitial collagenase; in data set [2]; in data set [3]; in data set [4] (insect cells)) was “Not Active” throughout. Besides, the inhibition constant (Ki) entry (in data set [1]; at Cytochrome P450 2D6; in data set [2]; in data set [3]) was “Not Active” in each case.

With `CC(C)Cc1ccc([C@H](C)C(=O)O)cc1` [DEXIBUPROFEN], the IC50 entry (in data set [1]; at Cytochrome P450 2D6; against Interstitial collagenase; in data set [2]; in data set [3]; in data set [4] (insect cells)) was “Not Active” throughout. Further, the Ki result (in data set [1]; at Cytochrome P450 2D6; in data set [2]; in data set [3]) was “Not Active” each time.

With `O=c1[nH]cnc2c1ncn2[C@H]1CC[C@@H](CO)O1` [DIDANOSINE], the half-maximal inhibitory concentration (IC50) entry (in data set [1]; at Cytochrome P450 2D6; at Interstitial collagenase; in data set [2]; in data set [3]; in data set [4] (insect cells)) was “Not Active” in each case. For the same compound, the inhibition constant Ki entry (in data set [1]; at Cytochrome P450 2D6; in data set [2]; in data set [3]) was “Not Active” each time.

Turning to `CC1(COc2ccc(CC3SC(=O)NC3=O)cc2)CCCCC1` (configuration not stated) [CIGLITAZONE], the IC50 entry in data set [1] was “Not Active”; against Cytochrome P450 2D6, “Not Active”; against Interstitial collagenase, “Not Active”; in data set [2], “Not Active”; in data set [3], “Not Active”; in data set [4] (read-out: IC50), 4660 nM. Besides, the Ki result (in data set [1]; at Cytochrome P450 2D6; in data set [2]; in data set [3]) was “Not Active” throughout.

For the compound `CC(=O)Nc1ccc2c(c1)Cc1ccccc1-2` [2-ACETYLAMINOFLUORENE], the 50% inhibitory concentration (IC50) result (in data set [1]; on Cytochrome P450 2D6; against Interstitial collagenase; in data set [2]; in data set [3]; in data set [4] (insect cells)) was “Not Active” each time. Also, the inhibition constant Ki result (in data set [1]; on Cytochrome P450 2D6; in data set [2]; in data set [3]) was “Not Active” each time.

As to `C[C@H](C(=O)O)c1ccc2oc(-c3ccc(F)cc3)nc2c1` [FLUNOXAPROFEN], the IC50 entry (in data set [1]; on Cytochrome P450 2D6; at Interstitial collagenase; in data set [2]; in data set [3]; in data set [4] (insect cells)) was “Not Active” in each case. In addition, the inhibition constant Ki entry (in data set [1]; at Cytochrome P450 2D6; in data set [2]; in data set [3]) was “Not Active” throughout.

Turning to `CC(C)Cn1cnc2c(N)nc3ccccc3c21` [IMIQUIMOD], the IC50 entry (in data set [1]; on Cytochrome P450 2D6; against Interstitial collagenase; in data set [2]; in data set [3]; in data set [4] (insect cells)) was “Not Active” each time. Further, the inhibition constant Ki result (in data set [1]; at Cytochrome P450 2D6; in data set [2]; in data set [3]) was “Not Active” throughout.

On to `OC[C@H]1OC2C3[C@@H](CO)OC(O[C@H]4[C@H](O)[C@@H](O)[C@@H](O[C@H]5[C@H](O)[C@@H](O)[C@@H](O[C@H]6[C@H](O)[C@@H](O)[C@@H](O[C@H]7[C@H](O)[C@@H](O)[C@@H](O[C@H]8[C@H](O)[C@@H](O)[C@@H](O[C@H]9[C@H](O)[C@@H](O)C(OC1[C@H](O)[C@H]2O)O[C@@H]9CO)O[C@@H]8CO)O[C@@H]7CO)O[C@@H]6CO)O[C@@H]5CO)O[C@@H]4CO)[C@H](O)[C@H]3O`, for which the IC50 result (in data set [1]; against Cytochrome P450 2D6; against Interstitial collagenase; in data set [2]; in data set [3]; in data set [4] (insect cells)) was “Not Active” throughout. Also, the Ki result (in data set [1]; at Cytochrome P450 2D6; in data set [2]; in data set [3]) was “Not Active” each time.

As to `CCN1CCN(c2cc3c(cc2F)c(=O)c(C(=O)O)cn3C2CC2)CC1` [ENROFLOXACIN], the IC50 entry (in data set [1]; on Cytochrome P450 2D6; against Interstitial collagenase; in data set [2]; in data set [3]; in data set [4] (insect cells)) was “Not Active” throughout. Moreover, the inhibition constant (Ki) entry (in data set [1]; on Cytochrome P450 2D6; in data set [2]; in data set [3]) was “Not Active” in each case.

For POVIDONE, the IC50 result (in data set [1]; against Cytochrome P450 2D6; against Interstitial collagenase; in data set [2]; in data set [3]; in data set [4] (insect cells)) was “Not Active” in each case. Also, the Ki result (in data set [1]; on Cytochrome P450 2D6; at Interstitial collagenase; in data set [2]; in data set [3]; in data set [4] (insect cells)) was “Not Active” throughout.

With `C=C(Cl)Cl` [1,1-DICHLOROETHENE], the IC50 result (in data set [1]; against Cytochrome P450 2D6; against Interstitial collagenase; in data set [2]; in data set [3]; in data set [4] (insect cells)) was “Not Active” each time. In addition, the inhibitory constant (Ki) entry (in data set [1]; at Cytochrome P450 2D6; in data set [2]; in data set [3]) was “Not Active” throughout.

`C#C[C@]1(O)CC[C@H]2[C@@H]3CCC4=CC(=O)CC[C@@H]4[C@H]3CC[C@@]21C` [NORETHINDRONE]: the IC50 result (in data set [1]; on Cytochrome P450 2D6; on Interstitial collagenase; in data set [2]; in data set [3]; in data set [4] (insect cells)) was “Not Active” in each case. Besides, the Ki entry (in data set [1]; on Cytochrome P450 2D6; in data set [2]; in data set [3]) was “Not Active” throughout.
